Measured values from patent publication US12493040B2, “Cancer detection method using sense of smell of nematode” (HIROTSU BIO SCIENCE INC., priority 2013, dated 2025).

Test system: RNAi-treated eri-1 (mg366) nematodes
Experiment: RNAi screening of olfactory receptor genes: chemotaxis assay of RNAi-treated nematodes to odorants
Format: in vivo, Caenorhabditis elegans
Details: repellent or high concentration of attractant
Procedure: The RNAi assay was carried out by performing an RNAi method involving the feeding (feeding RNAi method) of eri-1 (mg366) (19), using an Ahringer library (37).
Nine adult eri-1 mutants were placed on an NGM plate containing isopropyl 1-D-1-thiogalactopyranoside (0.19 g/L), ampicillin (60 mg/L), and Escherichia coli (E. coli), and were then cultured for 4 days. Subsequently, the adult worms were used in a chemotaxis assay. The chemotaxis assay was carried out as previously reported (6, 17). In the chemotaxis assay, the present inventor has used 30 to 50 worms in each experiment in which 1 μl of 10^−3- or 10^−4-diluted odorant (low concentration), or 1 and 5 μl of undiluted odorants (high concentration) were used.
The z score and a control value in each single test from 2SD were calculated in all days (Table 3) or every day. The z score was used as a threshold indicating a great difference (−1.96 and 1.96, P<0.05). […] Accordingly, the present inventor has used the z score±1 (−0.96 and 0.96, P<0.33) as a weaker threshold.

Compound `CC(=O)C(C)=O` [High Da] has a chemotaxis index (Control nematodes) of −0.62 ± 0.012, a chemotaxis index (srh-4 RNAi-treated nematodes) of −0.81 and a chemotaxis index (srh-7 RNAi-treated nematodes) of −0.83. The chemotaxis index (srh-8 RNAi-treated nematodes) was −0.63, the chemotaxis index (srh-10 RNAi-treated nematodes) was 0.20 and the chemotaxis index (srh-11 RNAi-treated nematodes) was −0.65. For the same compound, the chemotaxis index (srh-15 RNAi-treated nematodes) was −0.54, the chemotaxis index (srh-16 RNAi-treated nematodes) was −0.65 and the chemotaxis index (srh-18 RNAi-treated nematodes) was −0.74. The chemotaxis index (srh-19 RNAi-treated nematodes) was −0.43, the chemotaxis index (srh-22 RNAi-treated nematodes) was −0.74 and the chemotaxis index (srh-23 RNAi-treated nematodes) was −0.87. For the same compound, the chemotaxis index (srh-24 RNAi-treated nematodes) was −0.67, the chemotaxis index (srh-25 RNAi-treated nematodes) was −0.22 and the chemotaxis index (srh-27 RNAi-treated nematodes) was −0.80. It also gave a chemotaxis index (srh-28 RNAi-treated nematodes) of −0.58, a chemotaxis index (srh-36 RNAi-treated nematodes) of −0.46 and a chemotaxis index (srh-37 RNAi-treated nematodes) of −0.34. For the same compound, the chemotaxis index (srh-39 RNAi-treated nematodes) was −0.51, the chemotaxis index (srh-40 RNAi-treated nematodes) was −0.46 and the chemotaxis index (srh-41 RNAi-treated nematodes) was −0.21. The chemotaxis index (srh-44 RNAi-treated nematodes) was −0.25, the chemotaxis index (srh-45 RNAi-treated nematodes) was −0.47 and the chemotaxis index (srh-46 RNAi-treated nematodes) was −0.82. It also gave a chemotaxis index (srh-48 RNAi-treated nematodes) of −0.49, a chemotaxis index (srh-49 RNAi-treated nematodes) of −0.62 and a chemotaxis index (srh-50 RNAi-treated nematodes) of −0.52. For the same compound, the chemotaxis index (srh-51 RNAi-treated nematodes) was −0.73, the chemotaxis index (srh-52 RNAi-treated nematodes) was −0.78 and the chemotaxis index (srh-55 RNAi-treated nematodes) was −0.78. For the same compound, the chemotaxis index (srh-59 RNAi-treated nematodes) was −0.24, the chemotaxis index (srh-60 RNAi-treated nematodes) was −0.64 and the chemotaxis index (srh-61 RNAi-treated nematodes) was −0.57. It also gave a chemotaxis index (srh-67 RNAi-treated nematodes) of −0.58, a chemotaxis index (srh-68 RNAi-treated nematodes) of −0.49 and a chemotaxis index (srh-69 RNAi-treated nematodes) of −0.76. For the same compound, the chemotaxis index (srh-70 RNAi-treated nematodes) was −0.87, the chemotaxis index (srh-71 RNAi-treated nematodes) was −0.38 and the chemotaxis index (srh-72 RNAi-treated nematodes) was −0.73. The chemotaxis index (srh-74 RNAi-treated nematodes) was −0.54, the chemotaxis index (srh-75 RNAi-treated nematodes) was −0.42 and the chemotaxis index (srh-77 RNAi-treated nematodes) was −0.34. It also gave a chemotaxis index (srh-79 RNAi-treated nematodes) of 0.35, a chemotaxis index (srh-80 RNAi-treated nematodes) of −0.48 and a chemotaxis index (srh-82 RNAi-treated nematodes) of −0.36. It also gave a chemotaxis index (srh-83 RNAi-treated nematodes) of −0.23, a chemotaxis index (srh-97 RNAi-treated nematodes) of −0.42 and a chemotaxis index (srh-99 RNAi-treated nematodes) of −0.24. It also gave a chemotaxis index (srh-100 RNAi-treated nematodes) of −0.75, a chemotaxis index (srh-104 RNAi-treated nematodes) of −0.39 and a chemotaxis index (srh-105 RNAi-treated nematodes) of −0.58. It also gave a chemotaxis index (srh-109 RNAi-treated nematodes) of −0.59, a chemotaxis index (srh-111 RNAi-treated nematodes) of −0.35 and a chemotaxis index (srh-113 RNAi-treated nematodes) of −0.62. For the same compound, the chemotaxis index (srh-115 RNAi-treated nematodes) was −0.57, the chemotaxis index (srh-116 RNAi-treated nematodes) was −0.36 and the chemotaxis index (srh-118 RNAi-treated nematodes) was −0.64. For the same compound, the chemotaxis index (srh-119 RNAi-treated nematodes) was −0.78, the chemotaxis index (srh-120 RNAi-treated nematodes) was −0.66 and the chemotaxis index (srh-122 RNAi-treated nematodes) was −0.53. It also gave a chemotaxis index (srh-123 RNAi-treated nematodes) of −0.55, a chemotaxis index (srh-125 RNAi-treated nematodes) of −0.59 and a chemotaxis index (srh-128 RNAi-treated nematodes) of −0.48. It also gave a chemotaxis index (srh-129 RNAi-treated nematodes) of −0.69, a chemotaxis index (srh-130 RNAi-treated nematodes) of −0.37 and a chemotaxis index (srh-131 RNAi-treated nematodes) of −0.34. The chemotaxis index (srh-132 RNAi-treated nematodes) was −0.83, the chemotaxis index (srh-139 RNAi-treated nematodes) was −0.42 and the chemotaxis index (srh-140 RNAi-treated nematodes) was −0.46. For the same compound, the chemotaxis index (srh-141 RNAi-treated nematodes) was −0.77, the chemotaxis index (srh-142 RNAi-treated nematodes) was −0.49 and the chemotaxis index (srh-145 RNAi-treated nematodes) was −0.85. For the same compound, the chemotaxis index (srh-148 RNAi-treated nematodes) was −0.69, the chemotaxis index (srh-154 RNAi-treated nematodes) was −0.65 and the chemotaxis index (srh-159 RNAi-treated nematodes) was −0.45. It also gave a chemotaxis index (srh-165 RNAi-treated nematodes) of −0.79, a chemotaxis index (srh-166 RNAi-treated nematodes) of −0.83 and a chemotaxis index (srh-167 RNAi-treated nematodes) of −0.89. For the same compound, the chemotaxis index (srh-169 RNAi-treated nematodes) was −0.92, the chemotaxis index (srh-174 RNAi-treated nematodes) was −0.69 and the chemotaxis index (srh-179 RNAi-treated nematodes) was −0.87. For the same compound, the chemotaxis index (srh-182 RNAi-treated nematodes) was −0.86, the chemotaxis index (srh-186 RNAi-treated nematodes) was −0.80 and the chemotaxis index (srh-190 RNAi-treated nematodes) was −0.91. For the same compound, the chemotaxis index (srh-193 RNAi-treated nematodes) was −0.53, the chemotaxis index (srh-195 RNAi-treated nematodes) was −0.80 and the chemotaxis index (srh-201 RNAi-treated nematodes) was −0.95. It also gave a chemotaxis index (srh-203 RNAi-treated nematodes) of −0.94, a chemotaxis index (srh-204 RNAi-treated nematodes) of −0.89 and a chemotaxis index (srh-206 RNAi-treated nematodes) of −0.79. The chemotaxis index (srh-207 RNAi-treated nematodes) was −0.87, the chemotaxis index (srh-208 RNAi-treated nematodes) was −0.76 and the chemotaxis index (srh-209 RNAi-treated nematodes) was −0.70. For the same compound, the chemotaxis index (srh-210 RNAi-treated nematodes) was −0.56, the chemotaxis index (srh-214 RNAi-treated nematodes) was −0.60 and the chemotaxis index (srh-216 RNAi-treated nematodes) was −0.61. For the same compound, the chemotaxis index (srh-217 RNAi-treated nematodes) was −0.50, the chemotaxis index (srh-220 RNAi-treated nematodes) was −0.42 and the chemotaxis index (srh-222 RNAi-treated nematodes) was −0.66. The chemotaxis index (srh-223 RNAi-treated nematodes) was −0.50.
